Assays:
OPM-2 (Multiple myeloma) = assay: Antileukemic activity, cell viability (CCK-8 Cell Counting Kit); type: cell-based; details: Homo sapiens, 18 h incubation, compounds 0 - 100 µM, read-out: IC50 Cancer cells OPM-2 (Multiple myeloma)
Procedure: (§1) HaCaT cells (human keratinocytes, reference control), A549 (human lung adenocarcinoma cells), MeWo (human melanoma cells) and T24 (human bladder cancer cells) were purchased from Cell Lines Service (CLS). Cells were grown in Dulbecco's Modified Eagle's Medium (DMEM) supplemented with 100 U/mL penicillin, 100 µg/mL streptomycin and 10% fetal bovine serum. HL60 cell line (acute myeloid leukaemia, AML) was obtained from ATCC. It was cultured in IMDM medium supplemented with 100 U/mL penicillin, 100 µg/mL streptomycin and 10% fetal bovine serum. U937 (AML) and Jurkat cells (ALL) were obtained from DMSZ, Braunschweig, Germany, and ATCC, respectively. They were cultivated in RPMI medium, supplemented with 100 U/mL penicillin, 100 µg/mL streptomycin and 10% fetal bovine serum. OPM-2 cell line (MM), was obtained from DMSZ, Braunschweig, Germany and cultured in RPMI medium supplemented with 100 U/mL penicillin, 100 µg/mL streptomycin, 10% fetal bovine serum and 1X GlutaMAXTM. All cell lines were cultured at 37 ° C with 5% CO2 in a humidified incubator. Cell culture reagents were purchased from Biowest.
(§2) For the leukemic cell lines, the CCK-8 Cell Counting Kit (Dojindo Molecular Technologies) was used according to manufacturers instructions. Briefly, 50.000 cells were seeded in each well of a 96 well plate, and they were treated with increased amounts (0 - 100 µM) of each of the compounds, and incubated for 18 h at 37 °C, 5% CO2. After this period, 7 µl of the CCK-8 reagent were added to each well, and cells were further incubated for 2 h at 37 °C, 5% CO2. OD at 450 nm was obtained using a MultiskanTM GO microplate reader (Thermo Fisher Scientific, Waltham, MA, EE.UU). Cell viability in each condition was normalized to the measurement obtained in the non treated samples (100%), and were represented as average ± standard error of the mean (SEM).

[1] = test system: Jurkat (Acute lymphoblastic leukaemia); assay: as above; type: cell-based; details: Homo sapiens, 18 h incubation, compounds 0 - 100 µM, read-out: IC50 Cancer cells Jurkat (Acute lymphoblastic leukaemia)
Procedure: as §1, §2

[2] = test system: HL60 (Acute myeloid leukaemia); assay: as above; type: cell-based; details: Homo sapiens, HL-60; 18 h incubation, compounds 0 - 100 µM; read-out: IC50 Cancer cells HL60 (Acute myeloid leukaemia)
Procedure: as §1, §2

[3] = test system: U937 (Acute myeloid leukaemia); assay: as above; type: cell-based; details: Homo sapiens, U-937; 18 h incubation, compounds 0 - 100 µM; read-out: IC50 Cancer cells U937 (Acute myeloid leukaemia)
Procedure: as §1, §2

HaCaT cells = assay: Cell viability assay (resazurin), cytotoxicity in non-malignant cells; type: cell-based, human; details: Homo sapiens, HaCaT, 72 h, read-out: IC50 HaCaT (Non-malignant keratinocyte)
Procedure: (§3) Cells were grown in Dulbecco's Modified Eagle's Medium (DMEM) supplemented with 100 U/mL penicillin, 100 µg/mL streptomycin and 10% fetal bovine serum. HL60 cell line (acute myeloid leukaemia, AML) was obtained from ATCC. It was cultured in IMDM medium supplemented with 100 U/mL penicillin, 100 µg/mL streptomycin and 10% fetal bovine serum. U937 (AML) and Jurkat cells (ALL) were obtained from DMSZ, Braunschweig, Germany, and ATCC, respectively. They were cultivated in RPMI medium, supplemented with 100 U/mL penicillin, 100 µg/mL streptomycin and 10% fetal bovine serum. […] All cell lines were cultured at 37 ° C with 5% CO2 in a humidified incubator. Cell culture reagents were purchased from Biowest. Exponentially growing cells (3000-6000 cells per well) were seeded in 96-well plates. After 24 hours, cells were treated with the drugs for 72 hours. The cell viability was then estimated with the resazurin assay, a colorimetric technique based on the capability of viable cells to reduce the blue reagent resazurin to the pink-soluble product resorufin. The amount of resorufin produced is proportional to the number of viable cells. Briefly, cells were washed once with phosphate buffered saline (PBS) and 150 µL resazurin (20 µg/mL in medium) was added to each well. The plates were incubated for 3 hours at 37 °C, 5% CO2, and finally optical densities were measured at 540 and 620 nm with a multiwell plate spectrophotometer reader (Multiskan EX Labsystems). Cell viability was calculated as a percentage compared to non-treated cells. The results were expressed as the means ± standard error of the mean (SEM). All data are from at least three independent experiments.

[4] = test system: A549 (human lung adenocarcinoma cells); assay: Cell viability assay (resazurin), cytotoxic activity against solid tumours; type: cell-based; details: for IC50: Homo sapiens, A549, 72 h, read-out: IC50 A549 (Lung adenocarcino ma); for S.I. A549 (Selectivity Index): IC50 HaCaT divided by IC50 A549, mean of independent experiments
Procedure: as §3, with “The plates were incubated for 3 hours at 37 °C, 5% CO2, and finally optical densities were measured at 540 and 620 nm with a multiwell plate spectrophotometer reader (Multiskan EX Labsystems).” left out, “experiments. The selectivity index (S.I.) values were calculated over each cancer cell line as the mean of the IC50 value in the non-malignant cell line (HaCaT) by the IC50 in the respective cancer cell line obtained in each independent experiment.” for “experiments.”

[5] = test system: T24 (human bladder cancer cells); assay: as above; type: cell-based; details: for IC50: Homo sapiens, 72 h, read-out: IC50 T24 (Bladder cancer); for S.I. T24 (Selectivity Index): IC50 HaCaT divided by IC50 T24, mean of independent experiments
Procedure: as §3, with “The plates were incubated for 3 hours at 37 °C, 5% CO2, and finally optical densities were measured at 540 and 620 nm with a multiwell plate spectrophotometer reader (Multiskan EX Labsystems).” left out, “experiments. The selectivity index (S.I.) values were calculated over each cancer cell line as the mean of the IC50 value in the non-malignant cell line (HaCaT) by the IC50 in the respective cancer cell line obtained in each independent experiment.” for “experiments.”

[6] = test system: MeWo (human melanoma cells); assay: as above; type: cell-based; details: for IC50: Homo sapiens, MeWo, 72 h, read-out: IC50 MeWo (Melanoma; BRAF WT); for S.I. MeWo (Selectivity Index): IC50 HaCaT divided by IC50 MeWo, mean of independent experiments
Procedure: as §3, with “The plates were incubated for 3 hours at 37 °C, 5% CO2, and finally optical densities were measured at 540 and 620 nm with a multiwell plate spectrophotometer reader (Multiskan EX Labsystems).” left out, “experiments. The selectivity index (S.I.) values were calculated over each cancer cell line as the mean of the IC50 value in the non-malignant cell line (HaCaT) by the IC50 in the respective cancer cell line obtained in each independent experiment.” for “experiments.”

Row | SMILES | IC50 (OPM-2 (Multiple myeloma)) | IC50 [1] | IC50 [2] | IC50 [3] | IC50 (HaCaT cells) | IC50 [4] | S.I. A549 (Selectivity Index) [4] | IC50 [5] | S.I. T24 (Selectivity Index) [5] | IC50 [6] | S.I. MeWo (Selectivity Index) [6]
1 | CC(=O)OC[C@H]1O[C@@H](S(C)(=O)=O)[C@H](OC(C)=O)[C@@H](N=C=S)[C@@H]1OC(C)=O [Compound 19β, Methyl 2,4,6-tri-O-acetyl-3-isothiocyanato-1,3-dideoxy-1-sulfonyl-β-D-glucopyranose] | ~48.5 µM | 37.1 µM | ~24.7 µM | 45.7 µM | 138 ± 22.5 µM | 98 ± 24 µM | 1.5±0.1 | 51.8 ± 2.7 µM | 2.6±0.3 | 77.1 ± 14.4 µM | 1.9±0.3
2 | CCS(=O)(=O)[C@H]1O[C@H](COC(C)=O)[C@@H](OC(C)=O)[C@H](N=C=S)[C@H]1OC(C)=O [Compound 20α, Ethyl 2,4,6-tri-O-acetyl-3-isothiocyanato-1,3-dideoxy-1-sulfonyl-α-D-glucopyranose] | 71.9 µM | 30.3 µM | 19.9 µM | 74 µM | > 100 µM | 92.4 ± 25.7 µM | 2.1±0.1 | 55.8 ± 6 µM | 2.9±0.8 | 95.3 ± 44.8 µM | 1.9±0.2

From EP4534542A1, “THIOSUGAR BASED ISOTHIOCYANATES AND USES THEREOF” (Universidad de Sevilla, priority 2023, dated 2025)
